Experimental data: US12275850B2, “Organic-inorganic hybrid material comprising a metal and lignin, processes for preparing the same and uses thereof” (UPM-KYMMENE CORPORATION, priority 2018, dated 2025)

Tests used:
Experiment in all cases: MIC, agar dilution / broth microdilution
Type in all cases: cell-based
Details in all cases: mainly agar dilution; g/l of material; for Copper MIC refers to concentration of copper
Alternaria solani = system: Alternaria solani
Method: (§1) The antimicrobial activity of organic-inorganic hybrid materials of the present invention was evaluated through in vitro test of antimicrobial susceptibility with broth microdilution method and agar dilution method (CLSI protocol—Clinical and Laboratory Standards Institute). […] Agar dilution assay was used: the organic-inorganic hybrid materials were incorporated at different concentrations into the agar medium (specific for each microorganism) and after solidification of the medium, the inoculum (10^4 CFU/ml for the fungi and […] for the bacteria) was applied to the agar surface. Broth microdilution assay: the organic-inorganic hybrid materials were diluted into specific liquid media in the presence of a well-defined microbial suspension (10^4 CFU/ml for the fungi and […] for the bacteria). In the broth microdilution assay, the organic-inorganic hybrid materials were diluted into specific liquid media, but they resulted insoluble with the formation of precipitates on the bottom of the wells, consequently the MIC were mainly determinate with agar dilution assay. Two controls were prepared for the tests: a positive control of activity through use of Miconazole (against fungi) and Ceftriaxone (against bacteria). All the tests have been carried out in triplicate, giving very similar inhibition results. In parenthesis, the concentration (g/l) of copper relative to the corresponding copper-lignin derivative. For copper sulphate pentahydrate (copper) and copper hydroxide (copper 2) the MIC refer to the concentration of copper (g/l): […]

Botritis cinerea = system: Botritis cinerea
Method: as §1

Campylobacter jejuni = system: Campylobacter jejuni
Method: as §1

Candida albicans = system: Candida albicans
Method: as §1

Erwinia amylovora = system: Erwinia amylovora
Method: as §1

Escherichia coli = system: Escherichia coli
Method: as §1

Fusarium solani = system: Fusarium solani
Method: as §1

Monilia laxa = system: Monilia laxa
Method: as §1

Pseudomonas aeruginosa = system: Pseudomonas aeruginosa
Method: as §1

[1] = system: Pseudomonas syringae pv. actinidiae
Method: as §1

Rizoctonia solani = system: Rizoctonia solani
Method: as §1

Salmonella enteriditis = system: Salmonella enteriditis
Method: as §1

Septoria tritici = system: Septoria tritici
Method: as §1

Staphylococcus aureus = system: Staphylococcus aureus
Method: as §1

[2] = system: Xanthomonas arboricola pv. pruni
Method: as §1

Xanthomonas campestris = system: Xanthomonas campestris
Method: as §1

MIC (g/l) A. solani (Alternaria solani): 5.2 g/L
MIC (g/l) B. cinerea (Botritis cinerea): 5.2 g/L
MIC (g/l) C. jejuni (Campylobacter jejuni): <0.16 g/L
MIC (g/l) C. albicans (Candida albicans): 1.30 g/L
MIC (g/l) E. amylovora (Erwinia amylovora): 0.65 g/L
MIC (g/l) E. coli (Escherichia coli): 0.32 g/L
MIC (g/l) F. solani (Fusarium solani): 10.4 g/L
MIC (g/l) M. laxa (Monilia laxa): 0.65 g/L
MIC (g/l) P. aeruginosa (Pseudomonas aeruginosa): 1.30 g/L
MIC (g/l) P. syringae [1]: 0.32 g/L
MIC (g/l) R. solani (Rizoctonia solani): 0.32 g/L
MIC (g/l) S. enteridis (Salmonella enteriditis): 0.65 g/L
MIC (g/l) S. tritici (Septoria tritici): 0.65 g/L
MIC (g/l) S. aureus (Staphylococcus aureus): 0.32 g/L
MIC (g/l) X. arboricola [2]: <0.16 g/L
MIC (g/l) X. campestris (Xanthomonas campestris): 0.32 g/L
Structure (SMILES): [Cu+2].[OH-].[OH-] [Copper, Copper hydroxide]
